According to PMC11570809, “Novel N-phenyl-2-(aniline) benzamide hydrochloride salt development for colon cancer therapy” (Frontiers in Pharmacology, 2024):
Values joined by “and” are separate entries in the source; they are usually repeats but may differ in a detail not shown here. Identical values can stand only once. “Also recorded” adds a separate entry of the source. Counter-ions that a name gives are not always drawn. Like-named read-outs stand apart in the source and are kept apart here.

Experiments:
[1] = Oral pharmacokinetics study; format: in vivo, SD rats; conditions: for T1/2 / Tmax: n = 3
Experimental: Six 250–280 g male SD rats, which are 8-week-old, were randomly divided into 2 groups (n = 3). The dose selection is based on previously described ([Xiaoling Hu et al., 2022]). 100 mg/kg N53 and N53·HCl dissolved in normal saline containing 2.5% polyoxyethylene castor oil and 2.5% DMSO was administrated by oral medications. The first group was given 100 mg/kg of N53 by intragastric administration, and the second group was given 100 mg/kg of N53·HCl by intragastric administration. For intragastric administration, blood samples were collected from the orbits of the rats in heparin sodium tubes at 0, 5, 15, 30 min, 1, 2, 4, 6, 8, 12, and 24 h after dosing; The above blood samples were centrifuged (2,500 rpm, 6 min, 4°C) to plasma, and stored at −80°C to be analyzed by LC-MS/MS. Firstly, 5 times methanol was added to each serum sample and mixed well. After centrifugation at 1,600 rpm for 10 min at 4°C, the samples were filtered through a 0.22 μm filter for analysis. The HPLC analysis was carried out on an ODS-C18 column (4.6 mm × 50 mm, 3 μm). The HPLC mobile phases consisted of water (0.1% formic acid) (A) and 95% acetonitrile (including 0.1% formic acid) (B), separated by gradient chromatography at 0.4 mL/min. Chromatographic conditions: mobile phase: 0–0.5 min, acetonitrile: H2O = 10:90; 0.5–0.6 min acetonitrile: H2O = 100:0, 0.6–2.4 min, acetonitrile: H2O = 100:0, 2.4–2.5 min acetonitrile: H2O = 10:90; wavelength: 254 nm; column temperature: 25°C. The column eluate was directly introduced into ES-API. The MS/MS instrument was conducted using the electrospray ionization (ESI) source with a positive ion detection mode. The analytes (N53·HCl) and IS (Propranolol) were all detected by multiple reactions monitoring (MRM) scan mode of transitions from precursor ions to product ions at m/z 435.2→192.1 for N53·HCl (retention time: 1.54 min), m/z 260.0→116.0 for IS (retention time: 1.54 min). The optimized instrument parameters are as follows: declustering potentials (DP) at 51 V for N53·HCl, 78 V for IS; entrance potentials (EP) at 8V; collision energies (CE) at 34 V for N53·HCl, 25 V for IS; collision cell exit potentials (CXP) at 7 V; curtain gas (CUR) at a pressure of 10 psi; turbo spray voltage at 5,500 V. Data acquisition of LC-MS/MS was performed with AnalystTM 1.5 software package (Applied Biosystems, MA, United States). The pharmacokinetic parameters for N53 and N53·HCl were calculated by using the non-compartment method (statistical moment) in DAS 2.0 software (Pharmacokinetics Institute of China).

HT29 xenograft = test: HT29 nude xenograft model; format: in vivo, BALB/c nude mice; conditions: 15 mg/kg once a day p.o., 13 days
Experimental: HT29 cells in the logarithmic growth phase were digested to a cell density of 8 × 10^6/mL, and 100 μL suspension of HT29 was injected subcutaneously in the right axilla of nude mice. The dose selection is based on previously described ([Xiaoling Hu et al., 2022]). When the average tumor volume reached about 300 mm^3, they were randomly divided into 3 groups: N53·HCl (15 mg/kg once a day, p.o.), N53 (15 mg/kg once a day, p.o.), control group. 15 mg/kg N53 and N53·HCl dissolved in normal saline containing 2.5% polyoxyethylene castor oil and 2.5% DMSO were administrated by oral medications, while the Control group was given an equal volume of blank solvent. The tumor volume was measured with a vernier caliper every other days and calculated the tumor volume according to Equation 1. After 13 days of treatment, the mice were sacrificed, the tumors were removed, the tumor weight was weighed, and the tumor growth inhibition rate was calculated. The calculation formula of tumor growth inhibition rate (TGI%) was calculated using Equation 2. The corresponding equations were as follows: Tumor volume mm^3=W^2×L/2 (1) TGI%=1−T−T0 / C−C0×100% (2)
In equations, W and L represent the width and length of the tumor respectively, T and C represent the average volume of the experiment group and control group at the end of the experiment. T0 and C0 represent […].

HT29 cells = test: Plane colony assay, HT29; format: cell-based, human; conditions: HT29, 1, 2 and 4 µM
Experimental: In 6-well plates, HT29 cells and RKO cells (1 × 10^3 cells/well) were inoculated and maintained overnight. Then treated with N53 and N53·HCl at different concentrations for 24 h and with normal culture-medium for 7 days respectively. After that, removed supernatant and fixed by 4% paraformaldehyde for 15 min. Then fixed cells were stained with 1% crystal violet dye for 15 min and rinsed with water. Finally, colonies were counted according to rules that nonoverlapping groups of at least 50 cells. The data are all derived from three parallel experiments (n = 3) and expressed as mean ± SD.

[2] = Acute toxicity study (OECD guidelines), single dose by gavage; format: in vivo
Experimental: Acute toxicity studies were conducted for N53·HCl following OECD guidelines. Sixteen Kunming mice were purchased from SPF (Beijing) Biotechnology Co., Ltd. The mice were randomly divided into two groups (n = 8, 4 female and 4 male mice per group). The control group was treated with saline containing 10% DMSO, 10% Solutol HS -15, and the experimental group was treated with N53·HCl at a dose of 1,000 mg/kg (suspended in saline containing 10% DMSO and 10% Solutol HS -15).
All treatments were administered with a single dose by gavage. […] It can be seen that N53·HCl is a safe agent with an oral LD50 of more than 1,000 mg/kg in mice.

[3] = Hygroscopicity and stability of the salt forms; format: physicochemical; conditions: solid salt
[4] = 100 mg/kg p.o., n = 3, mean ± SD

Structure (SMILES)	Cmax (peak plasma concentration) ([1]; 100 mg/kg p.o.)	T1/2 ([1]; 100 mg/kg p.o.)	Tmax ([1]; 100 mg/kg p.o.)	AUC0(-∞) [1, 4]	CLz [1, 4]	Cmax [1, 4]	Vd/F ([1]; male, SD, rat, plasma, po, 100 mg/kg, 100 mg/kg p.o., n = 3, mean ± SD, read-out: Vz/F)	Body weight versus control group (HT29 xenograft)	Tumor inhibition rate (TGI) (HT29 xenograft)	Number of cell clones formed (HT29 cells)	Vz/F [1, 4]	Tmax ([1]; male, SD, rat, plasma, po, 100 mg/kg, 100 mg/kg p.o., read-out: Tmax)	AUC0–∞ increase relative to N53 ([1]; oral)	Cmax increase relative to N53 ([1]; oral)	Gross and histological (H&E) examination of major organs (heart, liver, kidney, spleen) ([2]; 1,000 mg/kg single dose by gavage, after 14 days)	Symptoms and body weight compared to vehicle-treated control ([2]; 1,000 mg/kg single dose by gavage, monitored 14 days)	LD50 at 14 days ([2]; both sexes, Kunming, mouse, in vivo, po)	Hygroscopicity [3]	Stability [3]
Cc1c(Cl)cccc1Nc1ccccc1C(=O)Nc1ccc(N2CCN(C)CC2)cc1 [Compound N53, 2-((3-chloro-2-methylphenyl)amino)-N-(4-(4-methylp-iperazin-1-yl)phenyl)benzamide]	333.7 µg/mL and 333 µg/mL	10.78 h and 10.8 ± 0.7 h	6.0 ± 2.0 h	7200 ± 700 ng·h/mL	232 ± 21.7 mL/min/kg	330 ± 40 µg/mL	217 ± 33.3 L/kg	no significant difference in body weight	34.7%										
Cc1c(Cl)cccc1Nc1ccccc1C(=O)Nc1ccc(N2CCN(C)CC2)cc1 [N53·HCl, 4-(4-(2-((3-chloro-2-methylphenyl)amino)ben-zamido)phenyl)-1-methylpiperazin-1-ium]	680.0 µg/mL	22.3 ± 9.9 h	6.7 ± 4.6 h	21200 ± 8000 ng·h/mL	85 ± 26.7 mL/min/kg	680 ± 180 µg/mL		no significant difference in body weight	53.7%	decreased significantly and dose-dependently	149.7 ± 11.6 L/kg	6.67 h	3 fold	2 fold	no obvious toxic effects; also recorded: no significant abnormalities	no significant changes in symptoms and body weight	> 1000 mg/kg	low in hygroscopicity	relatively stable under various conditions
